Results on three compounds are retold here after ChEMBL document CHEMBL4266026, “Bisleuconothines B-D, Modified Eburnane-Aspidosperma Bisindole Alkaloids from Leuconotis griffithii” (J Nat Prod, 2018).

In general, IC50 refers to the point on the concentration scale where inhibition reaches its midpoint.

This assay deals with A549. Briefly: Cytotoxicity against human A549 cells assessed as cell growth inhibition by MTT assay. The assay is classed as functional, cell-based. On the technique in general: Tetrazolium dyes change colour on reduction, which living cells bring about.
Consider `CC[C@@]12CCCN3CC[C@]4(c5c(ccc6c5O[C@@]57[C@@H]8N9CCC[C@]8(CC)C[C@@H]6N5c5ccccc5[C@]7(O)CC9)N(C=O)[C@@H]4CC1)[C@H]32`, for which the concentration for half-maximal inhibition (IC50) was found to be 36.1 µM. In the case of `CC[C@@]12CCCN3CC[C@]4(c5c(O)ccc([C@H]6C[C@@]7(CC)CCCN8CC[C@]9(C(=O)c%10ccccc%10N69)[C@H]87)c5N[C@@H]4CC1)[C@H]32`, the IC50 is 20.1 µM. With `CC[C@]12C=C(c3ccc(O)c4c3N[C@@H]3CC[C@@]5(CC)CCCN6CC[C@@]43[C@H]65)N3c4ccccc4C(=O)[C@]34CCN(CCC1)[C@H]24` the figure was 33.6 µM.
